System: K12877-001-R-J1-PDC complex spheroid viability
Assay: Anticancer human tumor K12877-001-R-J1-PDC patient-derived lung adenocarcinoma cell line growth inhibition [RAS]
Conditions: for viability, T/C: stronger effect = lower value
Summary of the method: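 Multi-cell-type spheroids: tumor cells plus HUVEC endothelial cells and mesenchymal stem cells. RAS-pathway inhibitors were combined with targeted agents, each dosed in half-log steps down from clinical Cmax, or from 10 microM when Cmax was unknown.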

[1] = curve of first compound, second compound 0.000949 µM
[2] = curve of first compound, second compound 0.003 µM
[3] = curve of first compound, second compound 0.00949 µM
[4] = curve of first compound, second compound 0.03 µM
[5] = curve of first compound, second compound 0.0949 µM
[6] = curve of first compound, second compound 0.3 µM
[7] = second compound 0.000949 µM, first compound 0.00316 µM
[8] = second compound 0.000949 µM, first compound 0.01 µM
[9] = second compound 0.000949 µM, first compound 0.0316 µM
[10] = second compound 0.000949 µM, first compound 0.1 µM
[11] = second compound 0.000949 µM, first compound 0.316 µM
[12] = second compound 0.000949 µM, first compound 1 µM
[13] = second compound 0.003 µM, first compound 0.00316 µM
[14] = second compound 0.003 µM, first compound 0.01 µM
[15] = second compound 0.003 µM, first compound 0.0316 µM
[16] = second compound 0.003 µM, first compound 0.1 µM
[17] = second compound 0.003 µM, first compound 0.316 µM
[18] = second compound 0.003 µM, first compound 1 µM
[19] = second compound 0.00949 µM, first compound 0.00316 µM
[20] = second compound 0.00949 µM, first compound 0.01 µM
[21] = second compound 0.00949 µM, first compound 0.0316 µM
[22] = second compound 0.00949 µM, first compound 0.1 µM
[23] = second compound 0.00949 µM, first compound 0.316 µM
[24] = second compound 0.00949 µM, first compound 1 µM
[25] = second compound 0.03 µM, first compound 0.00316 µM
[26] = second compound 0.03 µM, first compound 0.01 µM
[27] = second compound 0.03 µM, first compound 0.0316 µM
[28] = second compound 0.03 µM, first compound 0.1 µM
[29] = second compound 0.03 µM, first compound 0.316 µM
[30] = second compound 0.03 µM, first compound 1 µM
[31] = second compound 0.0949 µM, first compound 0.00316 µM
[32] = second compound 0.0949 µM, first compound 0.01 µM
[33] = second compound 0.0949 µM, first compound 0.0316 µM
[34] = second compound 0.0949 µM, first compound 0.1 µM
[35] = second compound 0.0949 µM, first compound 0.316 µM
[36] = second compound 0.0949 µM, first compound 1 µM
[37] = second compound 0.3 µM, first compound 0.00316 µM
[38] = second compound 0.3 µM, first compound 0.01 µM
[39] = second compound 0.3 µM, first compound 0.0316 µM
[40] = second compound 0.3 µM, first compound 0.1 µM
[41] = second compound 0.3 µM, first compound 0.316 µM
[42] = second compound 0.3 µM, first compound 1 µM
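Further: spheroids exposed to agents for one week before readout.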
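Wherever viability, T/C is given: tumour cells co-cultured with HUVEC and mesenchymal stem cells in spheroids.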

Structure (SMILES): CCN1CCN(Cc2ccc(Nc3ncc(F)c(-c4cc(F)c5nc(C)n(C(C)C)c5c4)n3)nc2)CC1 + CCn1c(-c2cccnc2C(C)OC)c2c3cc(ccc31)N1CCOC(CC(NC(=O)C(C(C)C)N(C)C(=O)C3(F)CCN(C(=O)C#CC(C)(C)N(C)C)CC3)C(=O)N3CCCC(N3)C(=O)OCC(C)(C)C2)C1
- IC50 [1]: 286 nM
- IC50 [2]: 229 nM
- IC50 [3]: 154 nM
- IC50 [4]: 146 nM
- IC50 [5]: 132 nM
- IC50 [6]: 160 nM
- viability, T/C [7]: 73.5%
- viability, T/C [8]: 80.4%
- viability, T/C [9]: 74.3%
- viability, T/C [10]: 61.5%
- viability, T/C [11]: 50.1%
- viability, T/C [12]: 31.5%
- viability, T/C [13]: 71.8%
- viability, T/C [14]: 76.9%
- viability, T/C [15]: 68.8%
- viability, T/C [16]: 69.9%
- viability, T/C [17]: 42.3%
- viability, T/C [18]: 28.9%
- viability, T/C [19]: 66%
- viability, T/C [20]: 77.1%
- viability, T/C [21]: 66.5%
- viability, T/C [22]: 56.8%
- viability, T/C [23]: 39.2%
- viability, T/C [24]: 34%
- viability, T/C [25]: 74.2%
- viability, T/C [26]: 76.5%
- viability, T/C [27]: 69.6%
- viability, T/C [28]: 51.8%
- viability, T/C [29]: 45.4%
- viability, T/C [30]: 36.3%
- viability, T/C [31]: 76.8%
- viability, T/C [32]: 65.5%
- viability, T/C [33]: 58.5%
- viability, T/C [34]: 61.6%
- viability, T/C [35]: 36.4%
- viability, T/C [36]: 25.4%
- viability, T/C [37]: 67.2%
- viability, T/C [38]: 59.1%
- viability, T/C [39]: 59.3%
- viability, T/C [40]: 58%
- viability, T/C [41]: 39.3%
- viability, T/C [42]: 27.4%

Structure (SMILES): C#Cc1c(F)ccc2cc(O)cc(-c3ncc4c(N5CC6CCC(C5)N6)nc(OCC56CCCN5CC(F)C6)nc4c3F)c12 (stereo not drawn)
- viability, T/C (compound 0.0316 µM): 105% [middle of 8 runs]
- viability, T/C (compound 0.1 µM): 107% [middle of 8 runs]
- viability, T/C (compound 0.316 µM): 110% [middle of 8 runs]
- viability, T/C (compound 1 µM): 110% [middle of 8 runs]
- viability, T/C (compound 3.16 µM): 101% [middle of 8 runs]
- viability, T/C (compound 10 µM): 96.5% [middle of 8 runs]
- IC50 (compound alone, run of 09/09/2024): > 10000 nM

Structure (SMILES): O=C(c1ccc(F)c(F)c1Nc1ccc(I)cc1F)N1CC(O)([C@@H]2CCCCN2)C1 + CCn1c(-c2cccnc2C(C)OC)c2c3cc(ccc31)N1CCOC(CC(NC(=O)C(C(C)C)N(C)C(=O)C3(F)CCN(C(=O)C#CC(C)(C)N(C)C)CC3)C(=O)N3CCCC(N3)C(=O)OCC(C)(C)C2)C1
- IC50 [1]: 300 nM
- IC50 [2]: 239 nM
- IC50 [3]: 144 nM
- IC50 [4]: 227 nM
- IC50 [5]: 129 nM
- IC50 [6]: 58.7 nM
- viability, T/C [7]: 81.2%
- viability, T/C [8]: 77.5%
- viability, T/C [9]: 80.8%
- viability, T/C [10]: 66.5%
- viability, T/C [11]: 49.9%
- viability, T/C [12]: 35.4%
- viability, T/C [13]: 72.6%
- viability, T/C [14]: 69.8%
- viability, T/C [15]: 67.5%
- viability, T/C [16]: 66.8%
- viability, T/C [17]: 44.6%
- viability, T/C [18]: 28.6%
- viability, T/C [19]: 71.1%
- viability, T/C [20]: 62.6%
- viability, T/C [21]: 70.7%
- viability, T/C [22]: 55.4%
- viability, T/C [23]: 37.7%
- viability, T/C [24]: 32.7%
- viability, T/C [25]: 66.1%
- viability, T/C [26]: 72.8%
- viability, T/C [27]: 73.1%
- viability, T/C [28]: 59%
- viability, T/C [29]: 46.3%
- viability, T/C [30]: 28.9%
- viability, T/C [31]: 76.7%
- viability, T/C [32]: 64.5%
- viability, T/C [33]: 69.5%
- viability, T/C [34]: 45.9%
- viability, T/C [35]: 44.3%
- viability, T/C [36]: 33.9%
- viability, T/C [37]: 70%
- viability, T/C [38]: 65.6%
- viability, T/C [39]: 52.1%
- viability, T/C [40]: 45.6%
- viability, T/C [41]: 40.1%
- viability, T/C [42]: 31%

Structure (SMILES): NC1c2ccccc2OC12CCN(c1cnc3c(N4CCCc5ncccc54)n[nH]c3n1)CC2 (stereo not drawn) + CCn1c(-c2cc(N3CCN(C)CC3)cnc2C(C)OC)c2c3cc(ccc31)-c1csc(n1)CC(NC(=O)C1CC1C)C(=O)N1CCCC(N1)C(=O)OCC(C)(C)C2
- IC50 [1]: > 10000 nM
- IC50 [2]: 7630 nM
- IC50 [3]: 4860 nM
- IC50 [4]: 3490 nM
- IC50 [5]: 1330 nM
- IC50 [6]: 937 nM
- viability, T/C [9]: 64.9%
- viability, T/C [10]: 57.4%
- viability, T/C [11]: 58%
- viability, T/C [12]: 83.2%
- viability, T/C (second compound 0.000949 µM, first compound 3.16 µM): 61.3%
- viability, T/C (second compound 0.000949 µM, first compound 10 µM): 46.9%
- viability, T/C [15]: 55.2%
- viability, T/C [16]: 72.1%
- viability, T/C [17]: 84.6%
- viability, T/C [18]: 82.2%
- viability, T/C (second compound 0.003 µM, first compound 3.16 µM): 62.9%
- viability, T/C (second compound 0.003 µM, first compound 10 µM): 46%
- viability, T/C [21]: 84.1%
- viability, T/C [22]: 80%
- viability, T/C [23]: 74.1%
- viability, T/C [24]: 64.9%
- viability, T/C (second compound 0.00949 µM, first compound 3.16 µM): 59.5%
- viability, T/C (second compound 0.00949 µM, first compound 10 µM): 38.6%
- viability, T/C [27]: 102%
- viability, T/C [28]: 97.1%
- viability, T/C [29]: 72.4%
- viability, T/C [30]: 64%
- viability, T/C (second compound 0.03 µM, first compound 3.16 µM): 56.9%
- viability, T/C (second compound 0.03 µM, first compound 10 µM): 34.2%
- viability, T/C [33]: 91.9%
- viability, T/C [34]: 77.6%
- viability, T/C [35]: 64.9%
- viability, T/C [36]: 52.7%
- viability, T/C (second compound 0.0949 µM, first compound 3.16 µM): 41.9%
- viability, T/C (second compound 0.0949 µM, first compound 10 µM): 33%
- viability, T/C [39]: 77.4%
- viability, T/C [40]: 67.7%
- viability, T/C [41]: 60%
- viability, T/C [42]: 49.3%
- viability, T/C (second compound 0.3 µM, first compound 3.16 µM): 39.1%
- viability, T/C (second compound 0.3 µM, first compound 10 µM): 26%
